Test results from patent US20060063759A1, “Tricyclic steroid hormone nuclear receptor modulators” (priority 2002, published 2006).

Assays:
human MR = molecular target: T1, human MR (Homo sapiens, UniProt P08235); assay: Mineralocorticoid Receptor Binding Assay ([3H]-aldosterone); conditions: [3H]-aldosterone binding, human MR expressed in Sf9 cells; read-out: MR Ki
T1 construct: The full length human MR gene is cloned from a human kidney or human brain cDNA library; His tag from the pAcHLT vector (own knowledge); made in house; host or cells: Sf9 insect cells (baculovirus, pAcHLT transfer vector)
T1 sequence (P08235 1-984): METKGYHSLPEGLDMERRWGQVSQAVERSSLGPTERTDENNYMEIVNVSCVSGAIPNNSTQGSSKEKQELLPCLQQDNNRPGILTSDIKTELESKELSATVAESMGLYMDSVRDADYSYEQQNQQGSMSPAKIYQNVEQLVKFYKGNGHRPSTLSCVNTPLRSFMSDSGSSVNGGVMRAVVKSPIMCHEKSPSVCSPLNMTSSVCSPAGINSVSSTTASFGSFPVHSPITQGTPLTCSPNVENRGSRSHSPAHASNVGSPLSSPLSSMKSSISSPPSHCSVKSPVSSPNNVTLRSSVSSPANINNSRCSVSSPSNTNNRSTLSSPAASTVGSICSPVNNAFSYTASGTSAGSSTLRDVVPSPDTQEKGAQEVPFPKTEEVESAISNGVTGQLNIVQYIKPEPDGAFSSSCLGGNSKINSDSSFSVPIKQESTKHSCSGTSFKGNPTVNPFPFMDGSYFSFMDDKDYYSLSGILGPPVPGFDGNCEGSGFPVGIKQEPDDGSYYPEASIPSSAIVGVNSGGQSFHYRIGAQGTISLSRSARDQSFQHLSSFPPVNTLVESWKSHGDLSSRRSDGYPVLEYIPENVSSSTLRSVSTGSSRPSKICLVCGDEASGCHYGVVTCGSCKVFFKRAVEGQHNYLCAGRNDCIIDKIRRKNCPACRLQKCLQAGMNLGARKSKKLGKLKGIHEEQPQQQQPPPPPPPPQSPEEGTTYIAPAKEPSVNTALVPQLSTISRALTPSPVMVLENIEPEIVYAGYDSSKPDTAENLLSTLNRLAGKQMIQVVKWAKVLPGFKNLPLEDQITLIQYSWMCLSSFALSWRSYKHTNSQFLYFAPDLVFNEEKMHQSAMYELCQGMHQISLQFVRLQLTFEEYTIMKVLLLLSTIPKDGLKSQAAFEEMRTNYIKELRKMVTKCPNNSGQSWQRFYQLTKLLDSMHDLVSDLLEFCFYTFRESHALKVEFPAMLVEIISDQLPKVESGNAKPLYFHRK
How it was run: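 Lysate supernatant of Sf9 cells expressing full-length human MR (20-25 μg protein) was incubated with 0.5 nM [3H]-aldosterone and test compound in molybdate/Tris/phosphate/glycerol buffer, pH 7.5, ~16 h at 4 °C. Bound ligand was filtered and counted by scintillation; IC50 is the concentration halving [3H]-aldosterone binding.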

glucocorticoid receptor = molecular target: T2, glucocorticoid receptor (Homo sapiens, UniProt P04150); assay: Glucocorticoid Receptor Binding Assay ([3H]-dexamethasone, A549 cell extract); conditions: [3H]-dexamethasone binding, read-out: GR Ki
T2 construct: containing 50-200 ug of A549 cell extract and 1.86 nM [^3H]-dexamethasone; host or cells: A549 human lung epithelial cells (sonicated cell extract)
T2 sequence (P04150 1-777): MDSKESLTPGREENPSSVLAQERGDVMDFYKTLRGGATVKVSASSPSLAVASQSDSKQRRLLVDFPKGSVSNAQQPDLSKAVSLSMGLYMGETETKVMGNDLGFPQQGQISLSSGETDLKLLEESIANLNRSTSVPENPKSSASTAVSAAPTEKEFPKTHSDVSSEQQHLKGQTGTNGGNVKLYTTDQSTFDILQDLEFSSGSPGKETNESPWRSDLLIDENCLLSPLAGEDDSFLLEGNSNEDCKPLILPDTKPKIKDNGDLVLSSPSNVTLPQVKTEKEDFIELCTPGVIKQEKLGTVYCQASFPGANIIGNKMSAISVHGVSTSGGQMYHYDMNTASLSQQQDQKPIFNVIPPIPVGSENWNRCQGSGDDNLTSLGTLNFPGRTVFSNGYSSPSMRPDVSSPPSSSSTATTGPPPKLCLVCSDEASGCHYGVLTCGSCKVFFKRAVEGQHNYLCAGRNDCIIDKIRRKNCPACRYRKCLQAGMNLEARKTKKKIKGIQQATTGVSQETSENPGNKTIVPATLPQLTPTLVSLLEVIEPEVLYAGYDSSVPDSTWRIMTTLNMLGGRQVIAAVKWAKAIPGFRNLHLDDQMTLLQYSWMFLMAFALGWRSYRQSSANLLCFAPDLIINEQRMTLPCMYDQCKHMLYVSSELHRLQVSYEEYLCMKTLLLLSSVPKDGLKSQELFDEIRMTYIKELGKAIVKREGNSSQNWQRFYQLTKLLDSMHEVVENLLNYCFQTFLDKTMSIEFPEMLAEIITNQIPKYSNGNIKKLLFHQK
How it was run: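 A549 cell extract (50–200 ug) incubated with 1.86 nM [3H]-dexamethasone and test compound for 16 h at 4 °C in Tris-HCl pH 7.2 buffer with glycerol and molybdate. Unbound radioligand removed by dextran-coated charcoal, then supernatant bound counts measured by scintillation.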

Row | Compound | Ki (human MR) | Ki (glucocorticoid receptor)
1 | CS(=O)(=O)Nc1cccc(/C=C2\c3ccccc3COc3cc(F)ccc32)c1 [Example 630] | < 0.5 µM | < 0.5 µM
2 | CCC(=C1c2ccc(F)cc2CCc2cc(F)ccc21)c1cccc(NS(C)(=O)=O)c1 [Example 776] | < 0.5 µM | < 0.5 µM
3 | CS(=O)(=O)Nc1cc(F)cc(/C=C2/c3ccc(Cl)cc3COc3ccccc32)c1 [Example 624] | < 0.5 µM | < 0.5 µM
4 | COc1cccc2c1OCc1ccccc1/C2=C/c1cccc(NS(C)(=O)=O)c1 [Example 669] | < 0.5 µM | < 0.5 µM
5 | Cc1ccc2c(c1)OCc1ccccc1/C2=C/c1cccc(NS(C)(=O)=O)c1 [Example 675] | < 0.5 µM | < 0.5 µM
6 | COc1cccc(/C=C2\c3ccccc3CCc3c(O)cccc32)c1 [Example 368] | < 0.5 µM | < 10 µM
7 | CCS(=O)(=O)Nc1cccc(C=C2c3ccccc3CCc3cc(OC)ccc32)c1 (mixture of isomers) [Example 163, Ethanesulfonic acid [3-(2-methoxy-10,11-dihydro-dibenzo[a,d]cyclohepten-5-ylidenemethyl)-phenyl]-amide] | < 0.5 µM | < 0.5 µM
8 | CS(=O)(=O)Nc1cccc(/C=C2\c3ccccc3CCc3cc(F)ccc32)c1 [Example 355] | < 0.5 µM | < 0.5 µM
9 | CS(=O)(=O)Nc1cccc(/C=C2/c3ccc(F)cc3CCc3ncccc32)c1 [Example 510] | < 0.5 µM | < 10 µM
10 | N#Cc1ccc2c(c1)CCc1ccccc1/C2=C/c1cccc(O)c1 [Example 340] | < 0.5 µM | < 0.5 µM
11 | O=C1Nc2ccc(Cl)cc2C(=Cc2cccc(Cl)c2)c2ccccc21 (mixture of isomers) [Example 655] | < 0.5 µM | < 0.5 µM
12 | O=S(=O)(Nc1cccc(C=C2c3ccccc3CCc3cc(Cl)ccc32)c1)c1ccccc1 [Example 399] | < 0.5 µM | < 10 µM
13 | CS(=O)(=O)Nc1cccc(/C=C2\c3ccccc3CSc3ccccc32)c1 [Example 262, N-[3-(11H-10-Thia-dibenzo[a,d]cyclohepten-5-ylidenemethyl)-phenyl]-methanesulfonamide] | < 0.5 µM | < 0.5 µM
14 | Oc1cccc(/C=C2/c3ccccc3CCc3c2cccc3C(F)F)c1 [Example 380] | < 0.5 µM | < 1 µM
15 | COc1cccc2c1COc1ccccc1[C@H]2Cc1cccc(NS(C)(=O)=O)c1 [Example 733] | < 0.5 µM | < 0.5 µM
16 | O=c1[nH]c2ccc(/C=C3\c4ccccc4COc4cc(Cl)ccc43)cc2[nH]1 [Example 614, 5-(3-Chloro-6H-dibenzo[b,e]oxepin-11-ylidenemethyl)-1,3-dihydro-benzoimidazol-2-one] | < 0.5 µM | < 1 µM

Second part, the compound after the results:

Row | Ki (human MR) | Ki (glucocorticoid receptor) | Compound
17 | < 0.5 µM | < 0.5 µM | CCS(=O)(=O)Nc1ccc(C=C2c3ccccc3CCc3ccccc32)cc1 [Example 106, Ethanesulfonic acid [4-(10,11-dihydro-dibenzo[a,d]cyclohepten-5-ylidenemethyl)-phenyl]amide]
18 | < 0.5 µM | < 0.5 µM | CS(=O)(=O)Nc1cccc(/C=C2/c3ccccc3CCc3scnc32)c1 [484(b), N-[3-(9,10-Dihydro-1-thia-3-aza-benzo[f]azulen-4-ylidenemethyl)-phenyl]-methanesulfonamide]
19 | < 0.5 µM | < 0.5 µM | C/C(=C1\c2ccc(F)cc2CCc2ncccc21)c1cc(F)cc(NS(C)(=O)=O)c1 [Example 837]
20 | < 0.5 µM | < 0.5 µM | CS(=O)(=O)Nc1cccc(/C=C2/c3ccccc3COc3ccc(F)cc32)c1 [Example 671]
21 | < 0.5 µM | < 0.5 µM | CS(=O)(=O)Nc1cccc(C=C2c3ccccc3CCc3cc(O)ccc32)c1 (mixture of isomers) [Example 162, N-[3-(2-Hydroxy-10,11-dihydro-dibenzo[a,d]cyclohepten-5-ylidenemethyl)-phenyl]-methanesulfonamide]
22 | < 0.5 µM | < 0.5 µM | CS(=O)(=O)Nc1cccc(/C=C2\c3ccc(Cl)cc3CCc3ncsc32)c1 [Example 553]
23 | < 0.5 µM | < 1 µM | O=c1[nH]c2cc(/C=C3\c4ccccc4COc4cc(F)ccc43)ccc2n1CCN1CCCC1 [Example 646]
24 | < 0.5 µM | < 0.5 µM | CC(=C1c2ccc(F)cc2CCc2cc(F)ccc21)c1cccc(NS(C)(=O)=O)c1 [Example 775]
25 | < 0.5 µM | < 0.5 µM | O=S(=O)(Cc1cccc(/C=C2\c3ccccc3CSc3ccccc32)c1)c1cccc(C(F)(F)F)c1 [Example 700]
26 | < 0.5 µM | < 0.5 µM | CS(=O)(=O)Nc1cccc(/C=C2/c3cccnc3CCc3c(Cl)cccc32)c1 [Example 573]
27 | < 0.5 µM | < 0.5 µM | Nc1ccccc1/C=C1\c2ccc(F)cc2CCc2ncccc21 [Example 530]
28 | < 0.5 µM | < 0.5 µM | COc1ccc2c(c1)CCc1ccccc1C2=Cc1cccc(NS(C)(=O)=O)c1 [Example 161, N-[3-(2-Methoxy-10,11-dihydro-dibenzo[a,d]cyclohepten-5-ylidenemethyl)-phenyl]-methanesulfonamide]
29 | < 0.5 µM | < 0.5 µM | CS(=O)(=O)Nc1cccc(/C=C2\c3ccc(F)cc3COc3ccccc32)c1 [Example 723]
30 | < 0.5 µM | < 0.5 µM | CS(=O)(=O)Nc1cccc(CC2c3ccccc3CCc3ccccc32)c1 [Example 125, N-[3-(10,11-Dihydro-5H-dibenzo[a,d]cyclohepten-5-ylmethyl)-phenyl]-methanesulfonamide]
31 | < 0.5 µM | < 0.5 µM | Cc1ccc2c(c1)SCc1ccccc1/C2=C/c1cccc(NS(C)(=O)=O)c1 [Example 748]
32 | < 0.5 µM | < 0.5 µM | C/C(=C1\c2cc(F)ccc2COc2ccccc21)c1cccc(NS(C)(=O)=O)c1 [Example 790]
33 | < 0.5 µM | < 0.5 µM | COc1cccc2c1/C(=C\c1cccc(NS(C)(=O)=O)c1)c1ccccc1SC2 [Example 696]
34 | < 0.5 µM | < 0.5 µM | CS(=O)(=O)Nc1cccc(/C=C2\c3ccccc3CCc3c(N)cccc32)c1 [Example 409]
35 | < 0.5 µM | < 10 µM | COc1ccc(NS(C)(=O)=O)cc1C=C1c2ccccc2CCc2ccccc21 [Example 42, N-[3-(10,11-Dihydro-dibenzo[a,d]cyclohepten-5-ylidenemethyl)-4-methoxy-phenyl]-methanesulfonamide]
36 | < 0.5 µM | < 0.5 µM | C/C(=C1\c2ccccc2COc2ccc(F)cc21)c1cccc(NS(C)(=O)=O)c1 [Example 789]
37 | < 0.5 µM | < 0.5 µM | COc1ccc2c(c1)/C(=C/c1cccc(NS(C)(=O)=O)c1)c1ccccc1CO2 [Example 679]
38 | < 0.5 µM | < 10 µM | Nc1cccc(C=C2c3ccccc3CCc3sccc32)c1 [Example 477, 3-(9,10-Dihydro-1-thia-benzo[f]azulen-4-ylidenemethyl)-phenylamine]
